# Measured values published in patent US11071727B2, “Therapeutic targeting of proteolytic cleavage of the mixed lineage leukemia gene product (MLL1) by taspase1 using kinase inhibitors” (Northwestern University, priority 2018, dated 2021).
# Key:
# [1] = test system: MLL1 cleavage by taspase1; assay: in vitro taspase1 cleavage assay on lysates of pretreated taspase1 KO cells; type: biochemical, human; conditions: 293T taspase1 KO cells pretreated 30 hours with CX-4945 (3 μM) or TTP22 (10 μM), compared with DMSO control
# Procedure: FIG. 5. CKII inhibitors selectively increase full-length MLL1 protein levels by decreasing the phosphorylation of MLL1 near the cleavage sites. (A) Conservation of the sequences flanking MLL1-CS2, MLL2 and TFIIA cleavage sites and phosphorylated serine and threonine residues after the cleavage sites (highlighted in red). (B) and (C) 293T cells were transfected with vector control (VT), WT, AA or DD reporter constructs of MLL1-p75 or TFIIA. Western blot was performed with anti-Flag antibody for MLL1 (p75: FL, p47: cleaved) or TFIIA (p54: FL, p47: cleaved). (D) and (E) 293T cells were transfected with WT or AA reporter constructs of MLL1-p75 or TFIIA in the presence or absence of HA-taspase1. Western blot was performed with anti-Flag antibody for MLL1 or TFIIA, or anti-HA antibody for taspase1. (F) 293T cells were infected with shRNAs against CKIIα or CKIIα′. Western blot was performed with anti-MLL1C antibody for MLL1 full-length protein levels, and CKIIα or CKIIα′ for knockdown efficiency. (G) 293T cells were treated with DMSO or 10 μM CX-4945 for 30 hours. Cells were harvested and lysed for Western blot against MLL1, MLL2 or TFIIA using β-tubulin as the loading control. […]
# in vitro taspase1 cleavage assay. […] Cleavage efficiency was detected by western blot against MLL1C and TFIIA using Hsp90 as the loading control.
# [2] = test system: MLL1; assay: Western blot of full-length MLL1 protein levels in cells treated with CKII inhibitors; type: cell-based, human; conditions: 293T, MCF7 and HCT116 cells, 0-20 μM, 30 hours, Western blot with MLL1C antibody
# Procedure: FIG. 5. CKII inhibitors selectively increase full-length MLL1 protein levels by decreasing the phosphorylation of MLL1 near the cleavage sites. (A) Conservation of the sequences flanking MLL1-CS2, MLL2 and TFIIA cleavage sites and phosphorylated serine and threonine residues after the cleavage sites (highlighted in red). (B) and (C) 293T cells were transfected with vector control (VT), WT, AA or DD reporter constructs of MLL1-p75 or TFIIA. Western blot was performed with anti-Flag antibody for MLL1 (p75: FL, p47: cleaved) or TFIIA (p54: FL, p47: cleaved). (D) and (E) 293T cells were transfected with WT or AA reporter constructs of MLL1-p75 or TFIIA in the presence or absence of HA-taspase1. Western blot was performed with anti-Flag antibody for MLL1 or TFIIA, or anti-HA antibody for taspase1. (F) 293T cells were infected with shRNAs against CKIIα or CKIIα′. Western blot was performed with anti-MLL1C antibody for MLL1 full-length protein levels, and CKIIα or CKIIα′ for knockdown efficiency. (G) 293T cells were treated with DMSO or 10 μM CX-4945 for 30 hours. Cells were harvested and lysed for Western blot against MLL1, MLL2 or TFIIA using β-tubulin as the loading control. (H) and (I) 293T taspase1 KO cells were pre-treated with CX-4945 (3 μM) or TTP22 (10 μM) for 30 hours. Whole cell lysates from the two conditions were incubated with increasing concentrations of his-taspase1 and subject to in vitro taspase1 assay.
# FIG. 13. CKII inhibitors increase full-length MLL1 protein levels. (A) Prediction of kinases that phosphorylate MLL1 near the taspase1 cleavage site. (B) Structure of the CKII inhibitors CX-4945, TTP22, DMAT and TTB. (C) Comparison of the IC50 and molecular weight of the four CKII inhibitors. […] Quantification of the band intensities was performed by ImageJ software. (E) and (F) in vitro taspase1 cleavage assay. Taspase1 KO cell lysates were incubated with recombinant his-tagged taspase1 (0, 1, 10, 100 or 1000 ng) and subject to in vitro taspase1 cleavage assay. Cleavage efficiency was shown as the blotting for MLL1 and TFIIA using Hsp90 as the loading control.
# Cell culture. […]
# [3] = test system: MLL1 chromatin occupancy; assay: ChIP-seq of MLL1 occupancy in 293T cells; type: cell-based, human; conditions: relative to DMSO control
# Procedure: FIG. 6. CKII inhibition increases genome-wide MLL occupancy and excludes SEC recruitment in MLL leukemia cells. (A) and (B) MLL1C occupancy in CX-4945 or TTP22 treated cells were shown relative to DMSO control. […] (C) Track examples of the MLL1 occupancy at the promoter regions of ELF2 and C6orf211. (D) CX-4945 inhibition of leukemia cell proliferation. Multiple MLL leukemia (orange lines) and non-MLL leukemia (blue lines) were cultured with different doses of CX-4945 for 3 days. Cell number was determined by cell counter and normalized to DMSO control. (E) SEM cells were treated with 0, 5 or 10 μM of CX-4945 for 30 hours and western blot was performed to determine the MLL1 full-length protein levels and MLL-AF4 fusion protein levels. (F) MLL-AFF1, AFF4 and ELL2 occupancies were decreased by CX-4945 treatment in SEM cells.
# ChIP-seq Analysis. 5×10^7 cells were used for each ChIP assay, as performed as previously described (Chen et al. 2015). Peaks were called with MACS v1.4.2 (Zhang et al. 2008) using default parameters and were annotated by the HOMER software (Heinz et al. 2010). Metaplots were generated using ngsplot (Shen et al. 2014). […] Differential occupancy of MLL1 was evaluated by edgeR, and peaks with Benjamini-Hochburg adjusted p-values less than 0.05 were considered to be differentially occupied. […]
structure (smiles),measurement,setting,value
"Cc1ccc(-c2csc3ncnc(SCCC(=O)O)c23)cc1 [TTP22, 3-[[5-(4-Methylphenyl)thieno[2,3-d]pyrimidin-4-yl]thio]propanoic acid]",cleavage efficiency by recombinant taspase1 protein,[1],cleavage efficiency was significantly diminished
same,MLL1 full-length protein levels,[2],dose-dependent increase of MLL1 full-length protein levels
same,MLL1 occupancy (genome-wide),[3],global increase of MLL1 occupancy
